Experimental data: patent publication US6150366A, “Ziprasidone formulations” (Pfizer Inc., priority 1999, dated 2000)
Structures can show the parent of a compound that is named as a salt.

Experiments:
[1] = cited from earlier work
[2] = cited from earlier work; remark: listed apart in the source
Solubility = format: physicochemical
[3] = Dissolution testing in USP-2 apparatus; format: physicochemical; details: aqueous media, at or below 85 μm
Protocol: Usually the test result is established as an average for a pre-determined number of dosages (e.g., capsules, tablets, suspensions, or other dosage form), usually six. The dissolution media is typically maintained at 37° C. during the test. […] The amount of dissolved ziprasidone can be determined conventionally by HPLC, as hereinafter described.
A dosage form can be tested to assess its dissolution profile by dissolution testing it in a USP-2 apparatus. As previously described, the apparatus is implemented to contain 900 ml of 0.05 M NaH2 PO4 buffer, pH 7.5, containing 2% (w/w) sodium dodecyl sulfate. 1% pancreatin may be added if the dosage form being tested is a capsule, as previously noted. The pH can be adjusted as approprate using, for example, 5N NaOH or concentrated phosphoric acid. The USP-2 apparatus is equipped with paddles stirring at 75 rpm. […]
The amount of dissolved ziprasidone can be determined conventionally by HPLC. […] Quantification can be effected facilely by comparison of HPLC peak height (or area) with the peak height (or area) taken from a standard plot of concentration vs. peak height (or area) for standards of known concentration. As is conventional, the ziprasidone standard concentrations are selected to fall within a linear range of concentration vs absorbance for the UV detector employed.

| solubility compared with the acid addition salt (Solubility; near-neutral pH) | solubility (Solubility; slurry in THF/water process) | SMILES | permeability [1] | aqueous solubility [2] | dependence of dissolution rate on particle size [3] |
| --- | --- | --- | --- | --- | --- |
| – | – | O=C1Cc2cc(CCN3CCN(c4nsc5ccccc45)CC3)c(Cl)cc2N1 [ziprasidone hydrochloride] | high permeability | relatively poor aqueous solubility | – |
| much less soluble | low solubility | O=C1Cc2cc(CCN3CCN(c4nsc5ccccc45)CC3)c(Cl)cc2N1 [ziprasidone] | – | – | does not vary substantially with particle size |
